Experiments:
[1] = Solubility of 22:0 Lyso PC (observation); type: physicochemical
[2] = tested on: human monocyte-derived dendritic cells (moDCs); experiment: DAMP screen: IL-1β secretion by LPS-activated human moDCs (ELISA); type: cell-based
human moDC = experiment: IL-1β secretion by human moDC with surfactant formulations of 22:0 Lyso PC; type: cell-based
Method: Formulation of 22:0 Lyso PC with poloxamers. […] 22:0 Lyso PC was resuspended in the surfactant solution and agitated at 4° C. for an hour. Solutions were then brought to room temperature to form micelles. Using 10× concentrated PBS, salts were added to the solution to stabilize molecular interactions and provide physiologically relevant osmolarity. Lipid solutions were either left unfiltered or filtered through a pore size of 0.45 um to remove insoluble lipid flakes. Lipids were further diluted and added onto human moDC cell cultures along with 1 ug/mL R848. Targeted lipid concentrations were based on the scenario where the lipid is fully bio-available prior to filtration. However, filtration of insoluble lipid reduces the bio-available supply of lipid. Thus, IL-1beta as a measure of hyperactivity can be used as an indicator of 22:0 Lyso PC incorporation into micelles and thus into solution. One day after hyperactivation, cell culture supernatants are collected to measure cytokine secretion, and cells are used to measure viability via Cell Titer-Glo.
Salts are added to the solution to stabilize the molecular interactions and bring the solution to a physiologically relevant osmolarity. The solutions are then either left unfiltered or filtered through a pore size of 0.45 um to remove insoluble lipid flakes or particle aggregates. Lipids are then added to human moDC cultures with 1 ug/mL R848. One day after hyperactivation, cell culture supernatants were collected to measure cytokine secretion, and cells were used to measure cell viability.
Data from these studies in poloxamer formulation are shown from one human moDC donor sample. Individual data points represent the mean of triplicates.

human naïve CD4+ T cells = experiment: Mixed lymphocyte reaction: polarization of naïve CD4 T cells (flow cytometry); type: cell-based
Method: Mixed lymphocyte reaction. Human monocytes were isolated from leukopheresis products using Miltenyi StraightFrom LeukoPak CD14 microbeads as directed by manufacturer. To isolate naïve CD4 T cells, whole blood was diluted with an equal volume of PBS. Diluted blood was layered on top of Ficoll-Paque PLUS solution and spun at 1000 rcf for 20 minutes at room temperature with no brakes. Buffy coat layer was collected, washed, and counted. Miltenyi human naïve CD4 T cell microbead isolation kits were used to isolate cells of interest from the PBMC according to manufacturer's instructions. Collected cells were cryogenically stored in 90% FBS and 10% DMSO.
Monocytes were differentiated into moDC. moDC were counted and plated in U-bottom plates at 2×10^4 cells/well and treated with hyperactivating stimuli or control conditions. After one day of culture, 1×10^5 cells/well naïve CD4 T cells from a different (allogeneic) human donor were thawed and added to the cultures with 100 ng/mL IL-2. Cells were cocultured for 5 days with an IL-2 feed on the third day of coculture. After 5 days, cells were reactivated for four hours using Leukocyte Activation Cocktail with BD GolgiPlug (BD Biosciences). Cells were stained to determine the resulting polarization of activated T cells via flow cytometry. Intracellular staining targets required the use of BD Biosciences Transcription Factor Buffer set to fix and permeabilize cells prior to the intracellular staining step.
Ten moDC donor samples were tested in MLR assay. Staining results were analyzed using FlowJo software, and consistent gating strategies were applied to all samples. Frequency of activated cells was graphed as a percentage of CD4 T cells in each sample. Paired t-tests were used to determine statistical significance.

[3] = tested on: human memory CD4+ T cells; experiment: Human moDC coculture with memory CD4 T cells: cytokine secretion; type: cell-based; details: moDC treated with R848 + lipid; limiting anti-CD3; 2 days after T cell addition
Description: Human moDC coculture with memory CD4 T cells. Human monocytes were isolated from leukopheresis products using Miltenyi StraightFrom LeukoPak CD14 microbeads as directed by manufacturer. Custom PBMC isolation microbead kits from Miltenyi were used to separate PBMCs from red blood cells and granulocytes from the same blood products. After PBMC purification, Miltenyi human memory CD4+ T cell isolation kits were used to negatively select the CD45RO+ fraction. Cells were cryogenically stored until ready for use in experiments.
Human monocytes were differentiated into dendritic cells as previously described using recombinant human GM-CSF and IL-4 for 6 days. moDCs were plated in R10 media at 5E4 cells/well into 96-well U-bottom microplates for hyperactivations. […] T cell stimulating anti-CD3 antibody was added into the culture (with or without blocking anti-IL-1beta antibody) prior to T cell addition. Autologous frozen memory CD4 T cells were thawed, resuspended in R10 media and added at 2.5×10^5 cells/well (ratio 1:5, DC:T cell). After two days incubation, cell culture supernatant was collected and used for measuring cytokine secretion. Commercially available kits such as Biolegend LegendPlex kits were used as directed by manufacturer's protocol to quantify cytokines of interest.
Four donors were tested with each experimental condition tested in triplicate. […]

[4] = tested on: murine, FLT3L-differentiated DC; experiment: Cytokine secretion by murine FLT3L-differentiated BMDC (ELISA); type: cell-based, mouse
Method: Murine FLT3L-differentiated, bone marrow-derived DC (BMDC) generation. Leg femur and tibia were removed from mice, cut with scissors and flushed into sterile tubes. Bone marrow suspension was treated with ACK for 1 minute, then passed through a 40 um cell strainer. Cells were counted and resuspended in media consisting of complete IMDM containing 10% FBS, penicillin and streptomycin, and supplements of L-glutamine and sodium pyruvate (I10). Cells were then plated at 5E6 bone marrow cells per well in a P12 plate. Recombinant mouse FLT3L (Miltenyi) was added to cultures at 200 ng/mL. Differentiated cells were used for subsequent assays on day 9. The efficiency of differentiation was monitored by flow cytometry using BD Symphony A3, and CD11c+MHC-II+ cells were routinely above 80% of living cells. For each experiment, five mice were used to collect BM and to generate DCs.
Murine FLT3L-differentiated BMDC (FLT3L-BMDC) hyperactivation. BMDCs were washed with PBS and re-plated in FLT3L-containing 110 at a concentration of 1.5×10^5 cells/well. Stimuli were added to cultures at indicated concentrations for a final volume of 200 uL/well. Twenty-four hours post-stimulation, cell culture supernatant was collected after centrifugation and stored at −20° C. to measure cytokine secretion. IL-1b, IL-6, IL-12p40, and TNF-alpha ELISA were performed using eBioscience Ready-SET-Go! (now ThermoFisher) ELISA kits according to the manufacturer's protocols. Cell viability was measured using Promega's Cell Titer-Glo reagent kits.

[5] = moDC treated with R848 + 22:0 LPC
[6] = R848 + 41 uM lipid in PBS or KP407, 24 h

For `CCCCCCCCCCCCCCCCCCCCCC(=O)OC[C@@H](O)COP(=O)([O-])OCC[N+](C)(C)C` [22:0 LYSO PC, 1-behenoyl-2-hydroxy-sn-glycero-3-phosphocholine], the “solubility in aqueous solution (in words)” value [1] was “mostly insoluble in aqueous solution”, the “solubility in alcohols (in words)” value ([1]; ethanol or methanol) was “soluble in ethanol or methanol” and the IL-1β secretion ([2]; 41.3 μM lipid + LPS 1 μg/mL, 2 days, Table 1-2) was 1904.2 pg/mL. The IL-1β secretion ([2]; 82.5 μM lipid + LPS, selected lipids, Table 1-3 (repeats Table 1-1)) was 2130.9 pg/mL, the “IL-1beta secretion, effect of 0.45 um filtration (in words)” value (human moDC; filtered vs unfiltered lipid + R848) was “significantly decreased the IL-1beta secreted by moDC” and the “IL-1beta secretion (in words)” value (human moDC; methanol or ethanol solvent evaporation with KP407, filtered, target 82.5 uM + R848) was “further increased”. The “IL-1beta secretion (in words)” value (human moDC; mixed with KP407 (5% in PBS), 0.45 um filtered, target 82.5 uM + R848) was “increased IL-1beta secretion”, the “IL-1beta secretion (in words)” value (human moDC; not incorporated into KP407 micelles, 0.45 um filtered, target 82.5 uM + R848) was “minimal amounts of IL-1beta” and the “IL-1beta secretion (in words)” value (human moDC; surfactant formulations left unfiltered + R848) was “high IL-1beta secretion”. The “Th2 polarization (Gata3, IL-4) (in words)” value (human naïve CD4+ T cells; [5]) was “minimal Th2 polarization occurred”, the “Th17 cells (RORg, IL-17) (in words)” value (human naïve CD4+ T cells; [5]) was “not detected” and the “frequency of polyfunctional Th1 cells (IFN-gamma and TNF-alpha) (in words)” value (human naïve CD4+ T cells; moDC treated with R848 + 22:0 LPC vs R848 alone) was “increased in frequency”. The “frequency of Th1 cells (in words)” value (human naïve CD4+ T cells; moDC treated with R848 + 22:0 LPC vs R848 alone, 5 days coculture) was “increased the frequency of Th1 cells”, the “IFN-gamma (Th1 response) from cocultured memory CD4 T cells (in words)” value [3] was “significantly stronger Th1 response” and the “IL-1beta secretion (in words)” value ([4]; 22:0 Lyso PC without R848) was “failed to induce IL-1beta secretion”. For the same molecule, the “IL-6 secretion (in words)” value [4, 6] was “high TNF-alpha and IL-6 secretion”, the “TNF-alpha secretion (in words)” value [4, 6] was “high TNF-alpha and IL-6 secretion” and the “TNF-alpha secretion (in words)” value ([4]; R848 + lipid in KP407) was “small boost in TNF-alpha secretion”. The “lipid concentration superior in supporting IL-1beta secretion while retaining cell viability” value ([4]; formulated in KP407 + R848) was 41 µM, the “IL-1beta secretion (in words)” value ([4]; lipid formulated in 5% KP407 + R848 1 ug/mL, 24 h) was “induced IL-1beta secretion in a dose dependent manner” and the “IL-1beta secretion (in words)” value ([4]; lipid resuspended in PBS, different concentrations, + R848 1 ug/mL, 24 h) was “unable to induce IL-1beta secretion”.

— patent US20240197869A1, “HYPERACTIVATORS OF MAMMALIAN DENDRITIC CELLS” (Corner Therapeutics, Inc., priority 2021, published 2024)
